Measured values as given in patent US20250074920A1, “MACROCYCLIC COMPOUNDS AND USE AS KINASE INHIBITORS” (BLOSSOMHILL THERAPEUTICS, INC., priority 2022, published 2025).

What was measured:
Assay in all cases: KINOMEscan kinase binding assay
AXL = details: at 1 μM
Method in brief: (§1)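 qPCR read-out of kinase retained on ligand-coated streptavidin beads. Binding buffer: 20% SeaBlock, 0.17×PBS, 0.05% Tween 20, 6 mM DTT; 1 h RT with shaking. % Ctrl = (test − positive control)/(negative control − positive control)×100; lower values mean stronger binding.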

EPHA6 = details: at 1 μM
Method in brief: (§2)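 Competition binding format: a test compound at a single concentration displaces phage-tagged or DNA-tagged kinase from an immobilized affinity ligand. After washing, kinase is released with 0.5 μM free ligand (30 min, room temperature) and measured by qPCR. Data are given as % Ctrl.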

FLT3(D835H) = details: at 1 μM
Method in brief: as §1

EGFR(T790M) = details: at 1 μM
Method in brief: as §1

EGFR(S752-1759del) = details: at 1 μM
Method in brief: as §2

ZAP70 = details: at 1 μM
Method in brief: as §1

[1] = tested on: ABL1(E255K)-phosphorylated; details: at 1 μM
Method in brief: as §1

[2] = tested on: JAK2(JH1domain-catalytic); details: for % Ctrl: JAK2(JH1domain-catalytic), at 1 μM; for Kd: read-out: JAK2(JH1 domain-catalytic) Kd
Method in brief: (§3)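 Dissociation constants came from the amount of kinase captured on the solid support across a test compound concentration series. Captured kinase, T7 phage-fused or HEK-293-made and DNA-tagged, was read by qPCR after a 1 h room-temperature binding step.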

YES = details: at 1 μM
Method in brief: as §1

RET = details: at 1 μM
Method in brief: as §1

[3] = tested on: ABL1(H396P)-phosphorylated; details: at 1 μM
Method in brief: as §1

MERTK = details: at 1 μM
Method in brief: as §1

KIT(V559D, V654A) = details: at 1 μM
Method in brief: as §1

TRKC = details: at 1 μM
Method in brief: as §1

[4] = tested on: ABL1(M351T)-phosphorylated; details: at 1 μM
Method in brief: as §1

[5] = tested on: ABL1(F3171)-phosphorylated; details: at 1 μM
Method in brief: as §1

MET(Y1235D) = details: at 1 μM
Method in brief: as §1

EGFR(E746-A750del) = details: at 1 μM
Method in brief: as §1

BTK = details: at 1 μM
Method in brief: as §1

FLT3(R834Q) = details: at 1 μM
Method in brief: as §1

CTK = details: at 1 μM
Method in brief: as §1

TYRO3 = details: at 1 μM
Method in brief: as §1

FLT3 = details: at 1 μM
Method in brief: as §1

KIT(A829P) = details: at 1 μM
Method in brief: as §1

KIT(D816V) = details: at 1 μM
Method in brief: as §1

FGFR4 = details: at 1 μM
Method in brief: as §1

ABL1-phosphorylated = details: at 1 μM
Method in brief: as §1

EGFR(G719S) = details: at 1 μM
Method in brief: as §1

VEGFR2 = details: at 1 μM
Method in brief: as §1

CSK = details: at 1 μM
Method in brief: as §1

[6] = tested on: JAK1(JH1domain-catalytic); details: for % Ctrl: JAK1(JH1domain-catalytic), at 1 μM; for Kd: read-out: JAK1(JH1 domain-catalytic) Kd
Method in brief: as §3

SRC = details: at 1 μM
Method in brief: as §1

IGF1R = details: at 1 μM
Method in brief: as §1

FLT1 = details: at 1 μM
Method in brief: as §1

[7] = tested on: ABL1(H396P)-nonphosphorylated; details: at 1 μM
Method in brief: as §1

EPHB3 = details: at 1 μM
Method in brief: as §1

TRKB = details: at 1 μM
Method in brief: as §1

FLT3(D835Y) = details: at 1 μM
Method in brief: as §1

TNK2 = details: at 1 μM
Method in brief: as §1

SYK = details: at 1 μM
Method in brief: as §1

Cc1cc2c([nH]1)/C=C1\C(=O)Nc3ccc(cc31)-c1c(nn(C)c1C)OCCCN(C)C2=O [Cpd. 1, [3a(4)Z]-6,9,15,16-tetramethyl-9,10,11,12-tetrahydro-15H-1,17-(ethanediylidene)pyrazolo[4,3-n]dipyrrolo[3,2-g:3′,4′-j][1,5]oxazacyclopentadecine-3,8(2H,5H)-dione]
% Ctrl (AXL): 85% | % Ctrl (EPHA6): 94% | % Ctrl (FLT3(D835H)): 96% | % Ctrl (EGFR(T790M)): 88% | % Ctrl (EGFR(S752-1759del)): 88% | % Ctrl (ZAP70): 94% | % Ctrl [1]: 92% | % Ctrl [2]: 98% | Kd [2]: > 10000 nM | % Ctrl (YES): 100% | % Ctrl (RET): 94% | % Ctrl [3]: 96% | % Ctrl (MERTK): 78% | % Ctrl (KIT(V559D, V654A)): 100% | % Ctrl (TRKC): 94% | % Ctrl [4]: 100% | % Ctrl [5]: 64% | % Ctrl (MET(Y1235D)): 98% | % Ctrl (EGFR(E746-A750del)): 95% | % Ctrl (BTK): 94% | % Ctrl (FLT3(R834Q)): 97% | % Ctrl (CTK): 58% | % Ctrl (TYRO3): 100% | % Ctrl (FLT3): 92% | % Ctrl (KIT(A829P)): 93% | % Ctrl (KIT(D816V)): 97% | % Ctrl (FGFR4): 95% | % Ctrl (ABL1-phosphorylated): 81% | % Ctrl (EGFR(G719S)): 80% | % Ctrl (VEGFR2): 93% | % Ctrl (CSK): 97% | % Ctrl [6]: 82% | Kd [6]: > 10 µM | % Ctrl (SRC): 89% | % Ctrl (IGF1R): 100% | % Ctrl (FLT1): 97% | % Ctrl [7]: 87% | % Ctrl (EPHB3): 99% | % Ctrl (TRKB): 87% | % Ctrl (FLT3(D835Y)): 97% | % Ctrl (TNK2): 100% | % Ctrl (SYK): 98%

Cc1cc2c([nH]1)/C=C1\C(=O)Nc3ccc(cc31)-c1c(nn(C)c1C)COCCN(C)C2=O [Cpd. 2, [3a(4)Z]-6,9,15,16-tetramethyl-10,11,13,15-tetrahydro-2H-1,17-(ethanediylidene)pyrazolo[4,3-m]dipyrrolo[3,2-f:3′,4′-i][1,4]oxazacyclopentadecine-3,8(5H,9H)-dione]
% Ctrl (AXL): 43% | % Ctrl (EPHA6): 100% | % Ctrl (FLT3(D835H)): 31% | % Ctrl (EGFR(T790M)): 85% | % Ctrl (EGFR(S752-1759del)): 80% | % Ctrl (ZAP70): 96% | % Ctrl [1]: 45% | % Ctrl [2]: 91% | Kd [2]: 2300 nM | % Ctrl (YES): 100% | % Ctrl (RET): 90% | % Ctrl [3]: 64% | % Ctrl (MERTK): 100% | % Ctrl (KIT(V559D, V654A)): 92% | % Ctrl (TRKC): 22% | % Ctrl [4]: 57% | % Ctrl [5]: 98% | % Ctrl (MET(Y1235D)): 87% | % Ctrl (EGFR(E746-A750del)): 100% | % Ctrl (BTK): 100% | % Ctrl (FLT3(R834Q)): 50% | % Ctrl (CTK): 93% | % Ctrl (TYRO3): 100% | % Ctrl (FLT3): 67% | % Ctrl (KIT(A829P)): 92% | % Ctrl (KIT(D816V)): 60% | % Ctrl (FGFR4): 100% | % Ctrl (ABL1-phosphorylated): 50% | % Ctrl (EGFR(G719S)): 77% | % Ctrl (VEGFR2): 48% | % Ctrl (CSK): 100% | % Ctrl [6]: 100% | Kd [6]: > 10 µM | % Ctrl (SRC): 100% | % Ctrl (IGF1R): 88% | % Ctrl (FLT1): 79% | % Ctrl [7]: 35% | % Ctrl (EPHB3): 100% | % Ctrl (TRKB): 12% | % Ctrl (FLT3(D835Y)): 36% | % Ctrl (TNK2): 89% | % Ctrl (SYK): 100%

Cc1cc2c([nH]1)/C=C1\C(=O)Nc3c(Cl)cc(cc31)-c1cn(C)nc1COC[C@@H](C)NC2=O [Cpd. 3, [3a(4)Z,10R]-20-chloro-6,10,15-trimethyl-10,11,13,15-tetrahydro-2H-1,17-(ethanediylidene)pyrazolo[4,3-m]dipyrrolo[3,2-f:3′,4′-i][1,4]oxazacyclopentadecine-3,8(5H,9H)-dione]
% Ctrl (AXL): 86% | % Ctrl (EPHA6): 93% | % Ctrl (FLT3(D835H)): 100% | % Ctrl (EGFR(T790M)): 87% | % Ctrl (EGFR(S752-1759del)): 94% | % Ctrl (ZAP70): 55% | % Ctrl [1]: 100% | % Ctrl [2]: 93% | Kd [2]: > 10000 nM | % Ctrl (YES): 99% | % Ctrl (RET): 96% | % Ctrl [3]: 100% | % Ctrl (MERTK): 98% | % Ctrl (KIT(V559D, V654A)): 100% | % Ctrl (TRKC): 100% | % Ctrl [4]: 99% | % Ctrl [5]: 97% | % Ctrl (MET(Y1235D)): 100% | % Ctrl (EGFR(E746-A750del)): 98% | % Ctrl (BTK): 86% | % Ctrl (FLT3(R834Q)): 100% | % Ctrl (CTK): 80% | % Ctrl (TYRO3): 94% | % Ctrl (FLT3): 57% | % Ctrl (KIT(A829P)): 99% | % Ctrl (KIT(D816V)): 97% | % Ctrl (FGFR4): 92% | % Ctrl (ABL1-phosphorylated): 96% | % Ctrl (EGFR(G719S)): 100% | % Ctrl (VEGFR2): 92% | % Ctrl (CSK): 94% | % Ctrl [6]: 100% | Kd [6]: > 10 µM | % Ctrl (SRC): 100% | % Ctrl (IGF1R): 95% | % Ctrl (FLT1): 92% | % Ctrl [7]: 100% | % Ctrl (EPHB3): 93% | % Ctrl (TRKB): 100% | % Ctrl (FLT3(D835Y)): 81% | % Ctrl (TNK2): 97% | % Ctrl (SYK): 68%

C[C@@H]1COCc2nn(C)cc2-c2cc(Cl)c3c(c2)/C(=C/c2[nH]ccc2C(=O)N1)C(=O)N3 [Cpd. 4, [3a(4)Z,10R]-20-chloro-10,15-dimethyl-10,11,13,15-tetrahydro-2H-1,17-(ethanediylidene)pyrazolo[4,3-m]dipyrrolo[3,2-f:3′,4′-i][1,4]oxazacyclopentadecine-3,8(5H,9H)-dione]
% Ctrl (AXL): 67% | % Ctrl (EPHA6): 97% | % Ctrl (FLT3(D835H)): 65% | % Ctrl (EGFR(T790M)): 90% | % Ctrl (EGFR(S752-1759del)): 93% | % Ctrl (ZAP70): 56% | % Ctrl [1]: 94% | % Ctrl [2]: 57% | Kd [2]: 1800 nM | % Ctrl (YES): 95% | % Ctrl (RET): 100% | % Ctrl [3]: 96% | % Ctrl (MERTK): 48% | % Ctrl (KIT(V559D, V654A)): 99% | % Ctrl (TRKC): 100% | % Ctrl [4]: 94% | % Ctrl [5]: 98% | % Ctrl (MET(Y1235D)): 100% | % Ctrl (EGFR(E746-A750del)): 96% | % Ctrl (BTK): 78% | % Ctrl (FLT3(R834Q)): 100% | % Ctrl (CTK): 76% | % Ctrl (TYRO3): 97% | % Ctrl (FLT3): 100% | % Ctrl (KIT(A829P)): 92% | % Ctrl (KIT(D816V)): 100% | % Ctrl (FGFR4): 88% | % Ctrl (ABL1-phosphorylated): 90% | % Ctrl (EGFR(G719S)): 96% | % Ctrl (VEGFR2): 94% | % Ctrl (CSK): 100% | % Ctrl [6]: 94% | Kd [6]: > 10 µM | % Ctrl (SRC): 100% | % Ctrl (IGF1R): 94% | % Ctrl (FLT1): 92% | % Ctrl [7]: 82% | % Ctrl (EPHB3): 93% | % Ctrl (TRKB): 100% | % Ctrl (FLT3(D835Y)): 96% | % Ctrl (TNK2): 100% | % Ctrl (SYK): 64%
